Measurements from publication PMC11467761 (RSC Medicinal Chemistry, 2024).

How the values were obtained:
Caco-2 cell monolayers = assay: Caco-2 cell permeability; type: in vitro ADME, human; settings: polarized Caco-2 cell monolayers
[1] = system: human induced pluripotent stem cell (iPSC)-derived cardiomyocytes, iCell Cardiomyocytes2; assay: Cardiac safety assay, Ca2+ oscillation in iPSC-derived cardiomyocytes; settings: 60 minutes, n = 3

Compound | Caco-2 cell permeability Class (Caco-2 cell monolayers) | Effect on pulse waveforms and beat intervals (Ca2+ oscillation) ([1]; 0.2 μM) | Effect on pulse waveforms and beat intervals (Ca2+ oscillation) ([1]; 2 μM) | Effect on pulse waveforms and beat intervals (Ca2+ oscillation) ([1]; 20 μM)
O=C(C1CCCCC1)N1CON2CCc3ccccc3C2C1 (centres unmarked) [Compound 4] | High | did not affect the pulse waveforms and beat intervals | the pulse waveforms remained unchanged, but a slight shortening of beat intervals was observed for up to 30 minutes post-addition | did not alter the pulse waveforms, but resulted in shortened beat intervals
O=C(C1CCCCC1)N1CC(=O)N2CCc3ccccc3C2C1 (centres unmarked) [PZQ, praziquantel, reference compound] | High |  |  | 
